Measurements from PubChem BioAssay AID1919006 (Molecular Pharmacology Branch, DTP, NCI, 2023).

Test system: 885512-296-R-J2-PDC complex spheroid growth, % test/control
Experiment: Anticancer human tumor 885512-296-R-J2-PDC patient-derived breast carcinoma cell line growth inhibition [AhR]
Conditions: for IC50: curve of first compound; for viability, T/C: stronger effect = lower value
In short: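 Complex tumor spheroids co-cultured with HUVEC and human MSC stroma; AhR antagonists tested in combination with standard-of-care and investigational agents. Top concentration at or near clinical Cmax (else 10 microM), half-log dilutions; growth expressed as percent test/control.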

[1] = second compound 0.1 µM, first compound 0.00949 µM
[2] = second compound 0.1 µM, first compound 0.03 µM
[3] = second compound 0.1 µM, first compound 0.0949 µM
[4] = second compound 0.1 µM, first compound 0.3 µM
[5] = second compound 0.1 µM, first compound 0.949 µM
[6] = second compound 0.1 µM, first compound 3 µM
[7] = second compound 0.316 µM, first compound 0.00949 µM
[8] = second compound 0.316 µM, first compound 0.03 µM
[9] = second compound 0.316 µM, first compound 0.0949 µM
[10] = second compound 0.316 µM, first compound 0.3 µM
[11] = second compound 0.316 µM, first compound 0.949 µM
[12] = second compound 0.316 µM, first compound 3 µM
[13] = second compound 1 µM, first compound 0.00949 µM
[14] = second compound 1 µM, first compound 0.03 µM
[15] = second compound 1 µM, first compound 0.0949 µM
[16] = second compound 1 µM, first compound 0.3 µM
[17] = second compound 1 µM, first compound 0.949 µM
[18] = second compound 1 µM, first compound 3 µM
[19] = second compound 3.16 µM, first compound 0.00949 µM
[20] = second compound 3.16 µM, first compound 0.03 µM
[21] = second compound 3.16 µM, first compound 0.0949 µM
[22] = second compound 3.16 µM, first compound 0.3 µM
[23] = second compound 3.16 µM, first compound 0.949 µM
[24] = second compound 3.16 µM, first compound 3 µM
[25] = second compound 10 µM, first compound 0.00949 µM
[26] = second compound 10 µM, first compound 0.03 µM
[27] = second compound 10 µM, first compound 0.0949 µM
[28] = second compound 10 µM, first compound 0.3 µM
[29] = second compound 10 µM, first compound 0.949 µM
[30] = second compound 10 µM, first compound 3 µM
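Note: spheroids exposed to compounds for seven days.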

SMILES	IC50 (second compound 0.1 µM) [µM]	IC50 (second compound 0.316 µM) [µM]	IC50 (second compound 1 µM) [µM]	IC50 (second compound 3.16 µM) [µM]	IC50 (second compound 10 µM) [µM]	viability, T/C [1] [%]	viability, T/C [2] [%]	viability, T/C [3] [%]	viability, T/C [4] [%]	viability, T/C [7] [%]	viability, T/C [8] [%]	viability, T/C [9] [%]	viability, T/C [10] [%]	viability, T/C [13] [%]	viability, T/C [14] [%]	viability, T/C [15] [%]	viability, T/C [16] [%]	viability, T/C [19] [%]	viability, T/C [20] [%]	viability, T/C [21] [%]	further results
CCN(c1cc(-c2ccc(CN3CCOCC3)cc2)cc(C(=O)NCc2c(C)cc(C)[nH]c2=O)c1C)C1CCOCC1 + CC(CO)NC(=O)c1cc(-c2ccc(Cl)cc2)nn(-c2cnn(C)c2)c1=O	> 3	> 3	> 3	> 3	> 3	105	96.8	83.3	79.6	106	102	93	78.9	88.8	111	93.3	82	88.3	90.3	82.9	viability, T/C [5]: 74.9%; viability, T/C [6]: 84.1%; viability, T/C [11]: 70.5%; viability, T/C [12]: 69.1%; viability, T/C [17]: 80.3%; viability, T/C [18]: 80.9%; viability, T/C [22]: 86.7%; viability, T/C [23]: 71.4%; viability, T/C [24]: 78.2%; viability, T/C [25]: 94.4%; viability, T/C [26]: 97.5%; viability, T/C [27]: 88%; viability, T/C [28]: 86.4%; viability, T/C [29]: 68.5%; viability, T/C [30]: 71.7%
Nc1ncn(C2CC(O)C(CO)S2)c(=O)n1 (stereo not given) + CC(CO)NC(=O)c1cc(-c2ccc(Cl)cc2)nn(-c2cnn(C)c2)c1=O	0.273	> 0.3	> 0.3	0.234	0.274	108	125	77	47.5	146	111	80.5	54.2	113	127	81.4	54.1	112	87.2	72.2	viability, T/C (second compound 0.1 µM, first compound 0.000949 µM): 98.8%; viability, T/C (second compound 0.1 µM, first compound 0.003 µM): 117%; viability, T/C (second compound 0.316 µM, first compound 0.000949 µM): 106%; viability, T/C (second compound 0.316 µM, first compound 0.003 µM): 92.9%; viability, T/C (second compound 1 µM, first compound 0.000949 µM): 106%; viability, T/C (second compound 1 µM, first compound 0.003 µM): 104%; viability, T/C (second compound 3.16 µM, first compound 0.000949 µM): 97.9%; viability, T/C (second compound 3.16 µM, first compound 0.003 µM): 101%; viability, T/C [22]: 43.9%; viability, T/C (second compound 10 µM, first compound 0.000949 µM): 101%; viability, T/C (second compound 10 µM, first compound 0.003 µM): 96.3%; viability, T/C [25]: 100%; viability, T/C [26]: 93.1%; viability, T/C [27]: 70.8%; viability, T/C [28]: 48.2%
O=C(C=Cn1cnc(-c2cc(C(F)(F)F)cc(C(F)(F)F)c2)n1)NNc1cnccn1 + CC(CO)NC(=O)c1cc(-c2ccc(Cl)cc2)nn(-c2cnn(C)c2)c1=O	0.0629	0.0672	0.0718	0.0656	0.0663	91.7	99.7	24.6	3.85	101	98.8	29.1	3.67	94.2	109	33.4	5.46	92.2	111	25.7	viability, T/C [5]: 2.45%; viability, T/C [6]: 0.96%; viability, T/C [11]: 1.87%; viability, T/C [12]: 0.84%; viability, T/C [17]: 1.59%; viability, T/C [18]: 0.91%; viability, T/C [22]: 6.14%; viability, T/C [23]: 1.92%; viability, T/C [24]: 0.85%; viability, T/C [25]: 114%; viability, T/C [26]: 107%; viability, T/C [27]: 24.1%; viability, T/C [28]: 4.61%; viability, T/C [29]: 2%; viability, T/C [30]: 0.87%
